Reference: patent US12448373B2, “Azetidinyl-acetamides as CXCR7 inhibitors” (CHEMOCENTRYX, INC., priority 2021, dated 2025)

Target: T1, CXCR7 (Homo sapiens, UniProt P25106)
T1 construct: expressed in transfected cells; host or cells: CHO cells (CHO-CXCR7), transgenes maintained with Hygromycin B and G418
Test: CXCR7 β-arrestin recruitment assay in CHO-CXCR7 cells (ProLink/EA β-galactosidase complementation), induced by human SDF-1a
Type: cell-based
Conditions: assay buffer, SDF-1a at EC50 concentration
Experimental: CXCR7 is fused in frame with a small enzyme donor fragment ProLink and co-expressed in CHO cells stably expressing a fusion protein of β-arrestin and the larger, N-terminal deletion mutant of β-galactosidase (called enzyme acceptor or EA). Activation of the CXCR7 stimulates binding of β-arrestin to the ProLink-tagged CXCR7 and forces complementation of the two enzyme fragments, resulting in the formation of an active β-galactosidase enzyme. The β-galactosidase enzyme activity is measured with a substrate that generates fluorescence.
CHO-CXCR7 cells (0.22×10^6/mL) were cultured in growth medium (Ham's F-12 medium with 10% fetal bovine serum (FBS)), Hygromycin B (200 ug/mL) and G418 (250 ug/mL) were used to maintain the transgenes. The day before the assay, the cells were detached from culture dishes with 0.25% trypsin-EDTA (Corning, Catalog No. 25-053-CI), plated into 96 well plate (2.2×10^5 cells/mL, 100 μL/well) and incubated overnight at 37° C. with 5% CO2. On the day of the assay, cell culture medium was removed and 100 uL of assay buffer (PBS or FBS) was added to each well. 1 μL of compound that were serially diluted in DMSO was added to each well. 5 μL of human SDF-la (Pepro Tech, Catalog No. 300-28A, at EC50 concentration pre-determined on the same day) was then added and mixed to induce CXCR7-mediated β-arrestin recruitment. The plates were incubated for 1.5 hours at 37° C. The assay buffer was removed, 100 μL substrate solution was added and the reaction was carried out at 37° C. for 30 minutes. The substrate solution was prepared by mixing 100 mL Phosphate Buffer (1M, Sigma, Catalog No. P3619-1GA), 100 mL 10% Triton X 100 (Sigma, Catalog No. T8787.), 5 mL MgCl2 (1M, Sigma, Catalog No. M1028), 1.5 mL, β-mercaptoethanol (Gibco, Catalog No. 21985-023.). 3-carboxyumbelliferyl β-D-galactopyranoside (ThermoFisher Scientific, Catalo No. F2905) was added at 0.4 mM right before use. The reaction was then stopped by adding 50 μL of Stop Solution (2.1% w/v Na2CO3) to each well. Fluorescence intensity was measured with a FlexStation 3 microplate reader (Molecular Devices) with the following setting—excitation: 360 nm, emission: 465 nm, manual Gain: 55. IC50 values were calculated with GraphPad Prism using 3 parameter nonlinear regression.

T1 sequence (P25106 whole entry): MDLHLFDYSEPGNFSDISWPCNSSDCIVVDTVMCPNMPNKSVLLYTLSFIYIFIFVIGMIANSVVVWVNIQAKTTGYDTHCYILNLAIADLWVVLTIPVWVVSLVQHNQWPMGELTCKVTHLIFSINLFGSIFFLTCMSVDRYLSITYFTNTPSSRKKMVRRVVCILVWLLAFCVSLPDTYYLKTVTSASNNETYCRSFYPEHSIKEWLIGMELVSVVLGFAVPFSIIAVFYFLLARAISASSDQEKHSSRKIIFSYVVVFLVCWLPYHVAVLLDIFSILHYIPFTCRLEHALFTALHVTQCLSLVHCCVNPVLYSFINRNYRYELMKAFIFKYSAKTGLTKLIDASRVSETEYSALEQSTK

Row | SMILES | IC50
1 | COc1cc(C)cc(C(C)(C)NC(=O)CC2(NC(=O)c3cc(-c4ccc(F)cc4F)on3)CN([C@H]3CC[C@@](C)(O)CC3)C2)c1 [Example 1.118] | 5 to 100 nM
2 | CC(C)(NC(=O)CC1(NC(=O)c2cc(-c3ccc(F)cc3F)on2)CN(C2CCCCC2)C1)c1ccc(F)cc1 [Example 1.298] | 5 to 100 nM
3 | CC(C)(NC(=O)CC1(NC(=O)c2nnc(-c3ccc(F)cc3F)s2)CN([C@H]2CC[C@](C)(O)CC2)C1)c1cc(F)ccc1F [Example 1.024] | 5 to 100 nM
4 | Cc1ccc(C)c(C(C)(C)NC(=O)CC2(NC(=O)c3nnc(-c4ccc(F)cc4F)s3)CN([C@H]3CC[C@](C)(O)CC3)C2)n1 [Example 1.011] | < 5 nM
5 | CC(C)(NC(=O)CC1(NC(=O)c2cn(-c3ccc(F)cc3F)nn2)CN([C@H]2CC[C@@](C)(O)CC2)C1)c1cccc(Cl)c1 [Example 1.066] | 5 to 100 nM
6 | COC1CCCCC1N1CC(CC(=O)NC(C)(C)c2ccccn2)(NC(=O)c2cc(-c3ccc(F)cc3F)on2)C1 (centres unmarked) [Example 1.305] | < 5 nM
7 | CC(C)(NC(=O)CC1(NC(=O)c2cc(-c3ccc(F)cc3F)on2)CN([C@H]2CC[C@@](C)(O)CC2)C1)c1ncccn1 [Example 1.232] | < 5 nM
8 | Cc1cccc(C(C)(C)NC(=O)CC2(NC(=O)c3cc(-c4ccc(F)cc4F)on3)CN([C@H]3CC[C@@](C)(O)CC3)C2)n1 [Example 1.225] | < 5 nM
9 | C[C@]1(O)CC[C@@H](N2CC(CC(=O)NCc3c[nH]c4ccccc34)(NC(=O)c3cc(-c4ccc(F)cc4F)on3)C2)CC1 [Example 1.278] | 1000 to 20000 nM
10 | CC1(CN2CC(CC(=O)NC(C)(C)c3cccc(C(F)(F)F)n3)(NC(=O)c3cc(-c4ccc(F)cc4F)on3)C2)COC1 [Example 1.130] | 1000 to 20000 nM
11 | COc1ccnc(C(C)(C)NC(=O)CC2(NC(=O)c3cc(-c4ccc(F)cc4F)on3)CN([C@H]3CC[C@](C)(O)CC3)C2)c1 [Example 1.201] | < 5 nM
12 | COc1cc(C(C)(C)NC(=O)CC2(NC(=O)c3cc(-c4ccc(F)cc4F)on3)CN([C@H]3CC[C@](C)(O)CC3)C2)ccc1F [Example 1.177] | 5 to 100 nM
13 | COc1ccc(C(C)(C)NC(=O)CC2(NC(=O)c3cc(-c4ccc(F)cc4F)on3)CN([C@H]3CC[C@](C)(O)CC3)C2)c(F)c1 [Example 1.213] | 100 to 1000 nM
14 | CC(C)(NC(=O)CC1(NC(=O)c2cc(-c3ccc(F)cc3F)on2)CN([C@H]2CC[C@](C)(C(=O)O)CC2)C1)c1ccccn1 [Example 1.108] | 100 to 1000 nM
15 | CC(C)(NC(=O)CC1(NC(=O)c2cc(-c3ccc(F)cc3F)on2)CN([C@H]2CC[C@@](C)(O)CC2)C1)c1cc(F)cc(F)c1 [Example 1.152] | < 5 nM
16 | CC(C)(NC(=O)CC1(NC(=O)c2cc(-c3ccc(F)cc3F)on2)CN([C@H]2CCCCC2(C)C)C1)c1ccccn1 [Example 1.275] | < 5 nM
17 | CC(C)(NC(=O)CC1(NC(=O)c2cc(-c3ccc(F)cc3F)sn2)CN([C@H]2CC[C@@](C)(O)CC2)C1)c1cccc(Cl)c1 [Example 1.043] | 100 to 1000 nM
18 | Cc1cc(C)nc(C(C)(C)NC(=O)CC2(NC(=O)c3cn(-c4ccc(F)cc4F)nn3)CN(C3CCCCC3)C2)n1 [Example 1.071] | 5 to 100 nM
19 | O=C(CC1(NC(=O)c2cc(-c3ccc(F)cc3F)on2)CN(C2CCCCC2)C1)N[C@H](CO)c1ccccc1 [Example 1.316] | 5 to 100 nM
20 | CC(C)(NC(=O)CC1(NC(=O)c2cc(-c3ccc(F)cc3F)sn2)CN([C@H]2CC[C@](C)(O)CC2)C1)c1cccc(Cl)c1 [Example 1.044] | 100 to 1000 nM
21 | COc1ccc(C(C)(C)NC(=O)CC2(NC(=O)c3cc(-c4ccc(F)cc4F)on3)CN([C@H]3CC[C@@](C)(O)CC3)C2)c(F)c1 [Example 1.212] | 5 to 100 nM
22 | CC(C)(NC(=O)CC1(NC(=O)c2cc(-c3ccc(F)cc3F)on2)CN(C2CCC3(CCOCC3)CC2)C1)c1ccccn1 [Example 1.102] | 100 to 1000 nM
23 | CC(C)(NC(=O)CC1(NC(=O)c2cc(-c3ccc(F)cc3F)on2)CN([C@H]2CC[C@](C)(O)CC2)C1)c1cccc(C#N)c1 [Example 1.173] | < 5 nM
24 | CC(C)CN1CC(CC(=O)NC(C)(C)c2cccc(Cl)c2)(NC(=O)c2cc(-c3ccc(F)cc3F)on2)C1 [Example 1.120] | 5 to 100 nM
25 | COc1cc(Cl)cc(C(C)(C)NC(=O)CC2(NC(=O)c3cc(-c4ccc(F)cc4F)on3)CN([C@H]3CC[C@@](C)(O)CC3)C2)c1 [Example 1.160] | < 5 nM

Row | SMILES | IC50
26 | CC(C)(NC(=O)CC1(NC(=O)c2cc(-c3ccc(F)cc3F)on2)CN([C@H]2CC[C@@](C)(O)CC2)C1)c1ccccn1 [Example 1.192] | < 5 nM
27 | CC(C)(NC(=O)CC1(NC(=O)c2ccn(-c3ccc(F)cc3F)n2)CN([C@H]2CC[C@](C)(O)CC2)C1)c1cccc(Cl)c1 [Example 1.056] | 1000 to 20000 nM
28 | CC(C)(O)CN1CC(CC(=O)NC(C)(C)c2ccc(Cl)cc2)(NC(=O)c2cc(-c3ccc(F)cc3F)on2)C1 [Example 1.138] | 100 to 1000 nM
29 | CC(C)(NC(=O)CC1(NC(=O)c2cc(-c3ccc(F)cc3F)on2)CN([C@H]2CC[C@](C)(O)CC2)C1)c1cccc2cc[nH]c12 [Example 1.116] | < 5 nM
30 | COc1cccc(C(C)(C)NC(=O)CC2(NC(=O)c3cc(-c4ccc(F)cc4F)on3)CN(CC3(C)COC3)C2)c1 [Example 1.174] | 100 to 1000 nM
31 | CC(C)(NC(=O)CC1(NC(=O)c2cc(-c3ccc(F)cc3F)on2)CN([C@H]2CC[C@@](C)(O)CC2)C1)c1cccc(C(F)(F)F)n1 [Example 1.155] | < 5 nM
32 | CC(C)(O)CCN1CC(CC(=O)NC(C)(C)c2ccccn2)(NC(=O)c2cc(-c3ccc(F)cc3F)on2)C1 [Example 1.230] | 1000 to 20000 nM
33 | CC(N1CC(CC(=O)NC(C)(C)c2ccccn2)(NC(=O)c2cc(-c3ccc(F)cc3F)on2)C1)C(F)(F)F (centres unmarked) [Example 1.312] | 1000 to 20000 nM
34 | CC(C)(NC(=O)CC1(NC(=O)c2cc(-c3ccc(F)cc3F)on2)CN([C@H]2CC[C@@](C)(O)CC2)C1)c1cc(Cl)cc(Cl)c1 [Example 1.086] | < 5 nM
35 | CC(C)(O)CN1CC(CC(=O)NC(C)(C)c2ccccn2)(NC(=O)c2cc(-c3ccc(F)cc3F)on2)C1 [Example 1.255] | 5 to 100 nM
36 | Cc1ccc(C(C)(C)NC(=O)CC2(NC(=O)c3cc(-c4ccc(F)cc4F)on3)CN([C@H]3CC[C@](C)(O)CC3)C2)cc1 [Example 1.243] | 100 to 1000 nM
37 | CC(C)(NC(=O)CC1(NC(=O)c2cc(-c3ccc(F)cc3F)on2)CN(C2CCOCC2)C1)c1ccccn1 [Example 1.317] | 5 to 100 nM
38 | CC(C)(NC(=O)CC1(NC(=O)c2cc(-c3ccc(F)cc3F)on2)CN(C2CCC3(CC2)COC3)C1)c1cc(Cl)cc(Cl)c1 [Example 1.092] | 5 to 100 nM
39 | Cc1cc(C)nc(C(C)(C)NC(=O)CC2(NC(=O)c3nnc(-c4ccc(F)cc4F)s3)CN([C@H]3CC[C@](C)(O)CC3)C2)c1 [Example 1.031] | < 5 nM
40 | CC(C)(CO)NC(=O)CC1(NC(=O)c2cc(-c3ccc(F)cc3F)on2)CN(C2CCCCC2)C1 [Example 1.309] | 100 to 1000 nM
41 | CC(C)(NC(=O)CC1(NC(=O)c2cn(-c3ccc(F)cc3F)nn2)CN(C2CCCCC2)C1)c1cccc(Cl)c1 [Example 1.076] | 5 to 100 nM
42 | CC(C)(NC(=O)CC1(NC(=O)c2cc(-c3ccc(F)cc3F)on2)CN([C@H]2CC[C@](C)(O)CC2)C1)c1ccc(Cl)cc1 [Example 1.250] | 100 to 1000 nM
43 | CC(C)(NC(=O)CC1(NC(=O)c2cc(-c3ccc(F)cc3F)n[nH]2)CN([C@H]2CC[C@](C)(O)CC2)C1)c1cccc(Cl)c1 [Example 1.054] | 1000 to 20000 nM
44 | CC(C)(NC(=O)CC1(NC(=O)c2cc(-c3ccc(F)cc3F)on2)CN(C2CCCCC2)C1)c1ccccc1C(F)(F)F [Example 1.308] | < 5 nM
45 | CC(C)(NC(=O)CC1(NC(=O)c2cc(-c3ccc(F)cc3F)on2)CN([C@H]2CC[C@@](C)(O)CC2)C1)c1cc(F)ccc1F [Example 1.235] | < 5 nM
46 | Cc1cc(C)nc(C(C)(C)NC(=O)CC2(NC(=O)c3cc(-c4ccc(F)cc4F)on3)CN(C3CCOC3(C)C)C2)n1 (centres unmarked) [Example 1.353] | 100 to 1000 nM
47 | CC(C)(NC(=O)CC1(NC(=O)c2cc(-c3ccc(F)cc3F)on2)CN([C@H]2CC[C@](C)(O)CC2)C1)c1ccnc(C(F)(F)F)c1 [Example 1.166] | 5 to 100 nM
48 | Cc1cc(C(C)(C)NC(=O)CC2(NC(=O)c3cc(-c4ccc(F)cc4F)on3)CN([C@H]3CC[C@@](C)(O)CC3)C2)ccn1 [Example 1.210] | < 5 nM
49 | CCc1cccc(C(C)(C)NC(=O)CC2(NC(=O)c3cc(-c4ccc(F)cc4F)on3)CN([C@H]3CC[C@@](C)(O)CC3)C2)c1 [Example 1.208] | < 5 nM
50 | CC(C)(NC(=O)CC1(NC(=O)c2cc(-c3ccc(F)cc3F)on2)CN([C@H]2CC[C@](C)(O)CC2)C1)c1cccc(F)c1 [Example 1.289] | < 5 nM
